These results are taken from patent US10851105B2, “Bicyclic heterocycles as FGFR4 inhibitors” (Incyte Corporation, priority 2014, dated 2020).

For assay [1], the target named is FGFR3 (Homo sapiens (Human), UniProt P22607). The assay is described as follows: FGFR Enzymatic Assay (FRET peptide phosphorylation), FGFR3. Particulars: for FGFR3/FGFR4: IC50 ratio.
Procedure: Inhibitors were serially diluted in DMSO and a volume of 0.5 μL was transferred to the wells of a 384-well plate. For FGFR3, a 10 μL volume of FGFR3 enzyme (Millipore) diluted in assay buffer (50 mM HEPES, 10 mM MgCl2, 1 mM EGTA, 0.01% Tween-20, 5 mM DTT, pH 7.5) was added to the plate and pre-incubated for a time between 5-10 minutes and up to 4 hours. Appropriate controls (enzyme blank and enzyme with no inhibitor) were included on the plate. […] The plate was incubated at 25° C. for 1 hr. […] The plate was allowed to equilibrate for ˜1 hr before scanning the wells on a PheraStar plate reader (BMG Labtech).
(§1) GraphPad prism3 was used to analyze the data. The IC50 values were derived by fitting the data to the equation for a sigmoidal dose-response with a variable slope. Y=Bottom+(Top-Bottom)/(1+10^((Log IC50−X)*HillSlope)) where X is the logarithm of concentration and Y is the response.
In assay [2] the target is FGFR1 (Homo sapiens (Human), UniProt P11362). The assay is described as follows: FGFR Enzymatic Assay (FRET peptide phosphorylation), FGFR1. Particulars: for FGFR1/FGFR4: IC50 ratio.
Chain of FGFR1 (P11362 22-822): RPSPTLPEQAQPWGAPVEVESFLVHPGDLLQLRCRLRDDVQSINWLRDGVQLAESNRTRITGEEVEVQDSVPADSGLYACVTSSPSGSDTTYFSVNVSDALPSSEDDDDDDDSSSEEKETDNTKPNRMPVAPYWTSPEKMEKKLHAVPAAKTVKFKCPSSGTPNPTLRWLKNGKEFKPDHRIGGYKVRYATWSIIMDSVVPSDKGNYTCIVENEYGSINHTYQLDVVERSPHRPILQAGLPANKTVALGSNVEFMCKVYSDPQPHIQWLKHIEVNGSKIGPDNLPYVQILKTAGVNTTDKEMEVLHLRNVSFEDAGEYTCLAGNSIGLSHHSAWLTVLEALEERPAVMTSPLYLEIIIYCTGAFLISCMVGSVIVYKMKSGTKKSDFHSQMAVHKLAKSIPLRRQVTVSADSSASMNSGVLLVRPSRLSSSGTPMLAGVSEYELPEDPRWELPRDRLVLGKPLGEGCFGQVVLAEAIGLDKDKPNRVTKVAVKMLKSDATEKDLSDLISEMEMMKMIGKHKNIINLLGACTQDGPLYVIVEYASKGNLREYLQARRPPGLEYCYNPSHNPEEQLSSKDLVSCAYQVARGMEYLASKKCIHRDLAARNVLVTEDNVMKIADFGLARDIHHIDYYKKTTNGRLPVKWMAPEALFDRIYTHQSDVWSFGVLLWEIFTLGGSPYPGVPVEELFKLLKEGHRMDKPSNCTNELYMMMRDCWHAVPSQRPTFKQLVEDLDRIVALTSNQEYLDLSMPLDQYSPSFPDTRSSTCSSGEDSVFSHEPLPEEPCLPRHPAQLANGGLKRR
Procedure: (§2) The inhibitor potency of the exemplified compounds was measured in an enzyme assay that measures peptide phosphorylation using FRET measurements to detect product formation. Inhibitors were serially diluted in DMSO and a volume of 0.5 μL was transferred to the wells of a 384-well plate. For FGFR3, a 10 μL volume of FGFR3 enzyme (Millipore) diluted in assay buffer (50 mM HEPES, 10 mM MgCl2, 1 mM EGTA, 0.01% Tween-20, 5 mM DTT, pH 7.5) was added to the plate and pre-incubated for a time between 5-10 minutes and up to 4 hours. Appropriate controls (enzyme blank and enzyme with no inhibitor) were included on the plate. […] The plate was incubated at 25° C. for 1 hr. […] The plate was allowed to equilibrate for ˜1 hr before scanning the wells on a PheraStar plate reader (BMG Labtech).
(§3) The enzymes were purchased from Millipore or Invitrogen.
as §1
The target in assay [3] is FGFR4 (Homo sapiens (Human), UniProt P22455). Description: FGFR Enzymatic Assay (FRET peptide phosphorylation), FGFR4.
Chain of FGFR4 (P22455 22-802): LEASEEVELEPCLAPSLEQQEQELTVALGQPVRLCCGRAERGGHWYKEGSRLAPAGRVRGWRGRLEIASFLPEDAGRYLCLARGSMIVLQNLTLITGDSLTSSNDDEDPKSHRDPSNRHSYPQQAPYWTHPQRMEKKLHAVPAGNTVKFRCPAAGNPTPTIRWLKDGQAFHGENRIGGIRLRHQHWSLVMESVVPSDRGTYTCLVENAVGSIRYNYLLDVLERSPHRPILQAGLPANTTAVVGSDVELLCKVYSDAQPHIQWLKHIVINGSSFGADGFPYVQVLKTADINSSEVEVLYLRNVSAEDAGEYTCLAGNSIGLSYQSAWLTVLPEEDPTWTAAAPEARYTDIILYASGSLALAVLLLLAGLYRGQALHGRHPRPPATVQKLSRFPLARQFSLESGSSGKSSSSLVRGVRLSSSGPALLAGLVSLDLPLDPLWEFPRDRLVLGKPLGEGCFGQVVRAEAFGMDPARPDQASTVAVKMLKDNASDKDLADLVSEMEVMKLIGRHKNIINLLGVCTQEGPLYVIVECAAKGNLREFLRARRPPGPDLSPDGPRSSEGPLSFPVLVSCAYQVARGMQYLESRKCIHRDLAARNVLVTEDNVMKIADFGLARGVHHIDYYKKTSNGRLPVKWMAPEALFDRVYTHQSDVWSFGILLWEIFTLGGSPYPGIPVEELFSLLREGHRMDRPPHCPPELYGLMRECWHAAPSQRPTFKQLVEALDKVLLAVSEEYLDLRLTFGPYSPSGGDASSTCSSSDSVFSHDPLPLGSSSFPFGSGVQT
Procedure: as §2, §3, §1
Assay [4] has as its target FGFR2 (Homo sapiens (Human), UniProt P21802). The assay is described as follows: FGFR Enzymatic Assay (FRET peptide phosphorylation), FGFR2. To be noted: for FGFR2/FGFR4: IC50 ratio.
Procedure: as §2, §3, §1
[5] abbreviates: pre-incubated for 5 to 10 minutes.
Where [6] appears, read: read-out: FGFR3 IC50, pre-incubated for 5 to 10 minutes.
Where [7] appears, read: FGFR1 IC50 (nM), pre-incubated for 5 to 10 minutes.
[8] abbreviates: FGFR1 IC50 (nM), pre-incubated for 4 hours.
Where [9] appears, read: FGFR4 IC50 (nM), pre-incubated for 5 to 10 minutes.
Setting [10] is: FGFR4 IC50 (nM), pre-incubated for 4 hours.
Where [11] appears, read: read-out: FGFR2 IC50, pre-incubated for 5 to 10 minutes.
[12] abbreviates: read-out: FGFR4 IC50, pre-incubated for 5 to 10 minutes.
Setting [13] is: read-out: FGFR4 IC50, pre-incubated for 4 hours.
The mark [14] stands for this setting: read-out: FGFR3 IC50, pre-incubated for 4 hours.
Setting [15] is: read-out: FGFR1 IC50, pre-incubated for 5 to 10 minutes.
[16] abbreviates: read-out: FGFR1 IC50, pre-incubated for 4 hours.
[17] abbreviates: read-out: FGFR2 IC50, pre-incubated for 4 hours.

Where two headings read alike, the source gives them in different places.

Chain of FGFR3 (P22607 23-806): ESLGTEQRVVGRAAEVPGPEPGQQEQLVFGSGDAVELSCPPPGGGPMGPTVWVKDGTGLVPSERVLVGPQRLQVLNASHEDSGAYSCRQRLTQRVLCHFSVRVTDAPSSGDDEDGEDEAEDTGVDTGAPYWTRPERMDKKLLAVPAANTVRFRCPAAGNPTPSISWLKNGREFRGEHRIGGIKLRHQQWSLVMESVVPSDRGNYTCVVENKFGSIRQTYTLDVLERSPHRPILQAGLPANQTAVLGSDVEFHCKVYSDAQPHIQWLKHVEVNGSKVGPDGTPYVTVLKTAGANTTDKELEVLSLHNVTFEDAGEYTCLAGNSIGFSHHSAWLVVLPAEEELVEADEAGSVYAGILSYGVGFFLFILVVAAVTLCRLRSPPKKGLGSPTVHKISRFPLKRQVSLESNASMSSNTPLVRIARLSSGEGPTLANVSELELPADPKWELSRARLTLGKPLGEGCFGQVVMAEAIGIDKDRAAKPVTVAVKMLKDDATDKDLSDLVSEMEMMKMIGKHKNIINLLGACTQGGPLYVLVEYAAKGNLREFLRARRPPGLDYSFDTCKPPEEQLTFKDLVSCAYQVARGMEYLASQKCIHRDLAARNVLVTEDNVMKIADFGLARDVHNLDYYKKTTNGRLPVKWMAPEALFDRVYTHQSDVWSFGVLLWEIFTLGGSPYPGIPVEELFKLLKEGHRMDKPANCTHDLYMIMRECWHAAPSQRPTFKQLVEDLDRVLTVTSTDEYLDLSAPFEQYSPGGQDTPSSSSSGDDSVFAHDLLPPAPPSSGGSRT
Chain of FGFR2 (P21802 22-821): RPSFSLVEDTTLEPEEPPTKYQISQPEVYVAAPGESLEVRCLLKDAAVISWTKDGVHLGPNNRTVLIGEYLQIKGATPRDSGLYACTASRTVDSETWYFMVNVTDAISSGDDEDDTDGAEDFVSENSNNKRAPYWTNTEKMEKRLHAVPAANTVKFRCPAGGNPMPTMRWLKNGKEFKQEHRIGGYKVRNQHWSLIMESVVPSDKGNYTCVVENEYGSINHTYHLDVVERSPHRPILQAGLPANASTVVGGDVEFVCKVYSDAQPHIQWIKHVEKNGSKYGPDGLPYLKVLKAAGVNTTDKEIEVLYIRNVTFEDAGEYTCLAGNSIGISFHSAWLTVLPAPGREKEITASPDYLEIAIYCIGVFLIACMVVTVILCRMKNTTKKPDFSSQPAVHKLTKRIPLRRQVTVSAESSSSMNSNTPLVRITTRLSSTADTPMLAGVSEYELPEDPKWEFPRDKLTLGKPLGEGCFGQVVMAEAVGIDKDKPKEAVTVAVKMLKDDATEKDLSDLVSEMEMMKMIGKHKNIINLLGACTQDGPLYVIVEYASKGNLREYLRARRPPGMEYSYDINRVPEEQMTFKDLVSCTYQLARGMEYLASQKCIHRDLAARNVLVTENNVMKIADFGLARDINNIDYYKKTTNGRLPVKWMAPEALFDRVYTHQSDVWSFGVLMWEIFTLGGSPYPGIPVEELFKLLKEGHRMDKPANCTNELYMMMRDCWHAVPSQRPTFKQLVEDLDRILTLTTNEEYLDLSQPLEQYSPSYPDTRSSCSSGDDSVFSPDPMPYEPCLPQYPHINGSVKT

In the case of `C=CC(=O)NC1CCCCC1Nc1cc2c(cn1)CN(c1c(F)c(OC)cc(OC)c1F)C(=O)C21CC1` (racemic) [Example 3, N-(2-(2′-(2,6-difluoro-3,5-dimethoxyphenyl)-3′-oxo-2′,3′-dihydro-1′H-spiro [cyclopropane-1,4′-[2,7]naphthyridine]-6′-ylamino)cyclohexyl)acrylamide], the IC50 in assay [1] was over 0.2 µM; in assay [1] (setting [6]), over 0.2 µM; in assay [2] (setting [7]) it was over 200 nM; in assay [2] (setting [8]), over 200 nM; in assay [3] (setting [9]) it was 30 to 200 nM; in assay [3] (setting [10]), under 10 nM. Besides, the IC50 in assay [4] and in assay [4] (setting [11]) was over 0.2 µM each time. In addition, the FGFR3/FGFR4 is reported as over 10 in assay [1] (setting [5]) and over 100 in assay [1] (pre-incubated for 4 hours). Besides, the FGFR1/FGFR4 in assay [2] (setting [5]) was over 5; in assay [2] (pre-incubated for 4 hours) it was over 25. Besides, the FGFR2/FGFR4 in assay [4] (setting [5]) is over 5; in assay [4] (pre-incubated for 4 hours) it was over 25.
As to `C=CC(=O)NC1COCC1Nc1cc2c(cn1)CN(c1c(F)c(OC)cc(OC)c1F)C(=O)C21CC1` (racemic) [Example 4, N-(4-(2′-(2,6-difluoro-3,5-dimethoxyphenyl)-3′-oxo-2′,3′-dihydro-1′H-spiro[cyclopropane-1,4′-[2,7]naphthyridine]-6′-ylamino)tetrahydrofuran-3-yl)acrylamide], the half-inhibitory concentration (IC50) was over 0.2 µM in assay [1]; over 0.2 µM in assay [1] (setting [6]); over 200 nM in assay [2] (setting [7]); 30 to 200 nM in assay [2] (setting [8]); under 10 nM in assay [3] (setting [9]); under 10 nM in assay [3] (setting [10]). For the same compound, the IC50 in assay [4] and in assay [4] (setting [11]) was over 0.2 µM each time. In addition, the FGFR3/FGFR4 in assay [1] (setting [5]) is over 10; in assay [1] (pre-incubated for 4 hours), over 100. For the same compound, the values for the FGFR1/FGFR4 in assay [2] (setting [5]) and in assay [2] (pre-incubated for 4 hours) were over 10 and over 100, respectively. In addition, the FGFR2/FGFR4 was over 10 in assay [4] (setting [5]) and over 100 in assay [4] (pre-incubated for 4 hours).
For the compound `C=CC(=O)Nc1ccccc1Nc1cc2c(cn1)CN(c1c(F)c(OC)cc(OC)c1F)C(=O)C21CC1` [Example 1, N-(2-(2′-(2,6-difluoro-3,5-dimethoxyphenyl)-3′-oxo-2′,3′-dihydro-1H-spiro[cyclopropane-1,4′-[2,7]naphthyridine]-6′-ylamino)phenyl)acrylamide], the IC50 in assay [1] is 0.03 to 0.2 µM; in assay [1] (setting [6]), 0.03 to 0.2 µM; in assay [2] (setting [7]) it was 30 to 200 nM; in assay [2] (setting [8]), 30 to 200 nM; in assay [3] (setting [12]), under 10 nM; in assay [3] (setting [13]), under 10 nM. Also, the IC50 in assay [4] and in assay [4] (setting [11]) was 0.03 to 0.2 µM each time. Further, the results for the FGFR3/FGFR4 in assay [1] (setting [5]) and in assay [1] (pre-incubated for 4 hours) were over 10 and over 100, respectively. For the same compound, the FGFR1/FGFR4 was over 10 in assay [2] (setting [5]) and over 100 in assay [2] (pre-incubated for 4 hours). Also, the results for the FGFR2/FGFR4 in assay [4] (setting [5]) and in assay [4] (pre-incubated for 4 hours) were over 10 and over 100, respectively.
As to `C=CC(=O)N(C)c1cc2c(cn1)CN(c1c(F)c(OC)cc(OC)c1F)C(=O)C21CC1` [Example 2, N-(2′-(2,6-difluoro-3,5-dimethoxyphenyl)-3′-oxo-2′,3′-dihydro-1′H-spiro [cyclopropane-1,4′-[2,7]naphthyridine]-6′-yl)-N-methylacrylamide], the IC50 in assay [1] is 0.03 to 0.2 µM; in assay [1] (setting [6]), over 0.2 µM; in assay [2] (setting [7]) it was 30 to 200 nM; in assay [2] (setting [8]) it was 30 to 200 nM; in assay [3] (setting [9]), 10 to 30 nM; in assay [3] (setting [13]) it was under 10 nM. The IC50 in assay [4] and in assay [4] (setting [11]) was 0.03 to 0.2 µM each time. Further, the FGFR3/FGFR4 in assay [1] (setting [5]) is over 5; in assay [1] (pre-incubated for 4 hours) it was over 10. Also, the FGFR1/FGFR4 was over 5 in assay [2] (setting [5]) and over 10 in assay [2] (pre-incubated for 4 hours). The FGFR2/FGFR4 was over 2 in assay [4] (setting [5]) and over 5 in assay [4] (pre-incubated for 4 hours).
Regarding `C=CC(=O)Nc1cccc(C)c1Nc1cc2c(cn1)CN(c1c(F)c(OC)cc(OC)c1F)C(=O)C21CC1` [Example 5, N-(2-(2′-(2,6-difluoro-3,5-dimethoxyphenyl)-3′-oxo-2′,3′-dihydro-1′H-spiro [cyclopropane-1,4′-[2,7]naphthyridine]-6′-ylamino)-3-methylphenyl)acrylamide], the FGFR3/FGFR4 is on record as over 10 in assay [1] (setting [5]) and over 100 in assay [1] (pre-incubated for 4 hours). The 50% inhibitory concentration (IC50) in assay [1] (setting [6]) was over 0.2 µM; in assay [1] (setting [14]), over 0.2 µM; in assay [2] (setting [15]), over 200 nM; in assay [2] (setting [16]), over 200 nM; in assay [3] (setting [12]), under 10 nM; in assay [3] (setting [13]), under 10 nM. In addition, the IC50 in assay [4] (setting [11]) and in assay [4] (setting [17]) was over 0.2 µM throughout. For the same compound, the FGFR1/FGFR4 was over 10 in assay [2] (setting [5]) and over 100 in assay [2] (pre-incubated for 4 hours). Besides, the FGFR2/FGFR4 is over 10 in assay [4] (setting [5]) and over 100 in assay [4] (pre-incubated for 4 hours).
Turning to `C=CC(=O)Nc1ccccc1Nc1cc2c(cn1)CN(c1c(F)c(OC)cc(OC)c1F)C(=O)C2(C)C` [Example 6, N-(2-(7-(2,6-difluoro-3,5-dimethoxyphenyl)-5,5-dimethyl-6-oxo-5,6,7,8-tetrahydro-2,7-naphthyridin-3-ylamino)phenyl)acrylamide], the FGFR3/FGFR4 is reported as over 10 in assay [1] (setting [5]) and over 100 in assay [1] (pre-incubated for 4 hours). The IC50 in assay [1] (setting [6]) was over 0.2 µM; in assay [1] (setting [14]), over 0.2 µM; in assay [2] (setting [15]) it was over 200 nM; in assay [2] (setting [16]), over 200 nM; in assay [3] (setting [9]), 10 to 30 nM; in assay [3] (setting [13]), under 10 nM. Also, the IC50 in assay [4] (setting [11]) and in assay [4] (setting [17]) was over 0.2 µM each time. For the same compound, the FGFR1/FGFR4 in assay [2] (setting [5]) is over 10; in assay [2] (pre-incubated for 4 hours), over 100. Besides, the FGFR2/FGFR4 in assay [4] (setting [5]) is listed as over 10; in assay [4] (pre-incubated for 4 hours) it was over 100.
For the compound `C=CC(=O)Nc1ccccc1Nc1cc2c(cn1)CN(c1c(F)c(OC)cc(OC)c1F)C(=O)C21CCCC1` [Example 7, N-(2-(2′-(2,6-difluoro-3,5-dimethoxyphenyl)-3′-oxo-2′,3′-dihydro-1′H-spiro [cyclopentane-1,4′-[2,7]naphthyridine]-6′-ylamino)phenyl)acrylamide], the FGFR3/FGFR4 is reported as over 10 in assay [1] (setting [5]) and over 100 in assay [1] (pre-incubated for 4 hours). The IC50 in assay [1] (setting [6]) is over 0.2 µM; in assay [1] (setting [14]) it was over 0.2 µM; in assay [2] (setting [7]) it was 30 to 200 nM; in assay [2] (setting [8]), 30 to 200 nM; in assay [3] (setting [12]), under 10 nM; in assay [3] (setting [13]), under 10 nM. Also, the half-maximal inhibitory concentration (IC50) was 0.03 to 0.2 µM in assay [4] and over 0.2 µM in assay [4] (setting [11]). Moreover, the figures for the FGFR1/FGFR4 in assay [2] (setting [5]) and in assay [2] (pre-incubated for 4 hours) were over 10 and over 100, respectively. The FGFR2/FGFR4 is given as over 10 in assay [4] (setting [5]) and over 100 in assay [4] (pre-incubated for 4 hours).
For `C=CC(=O)Nc1ccccc1Nc1cc2c(cn1)CN(c1c(F)c(OC)cc(OC)c1F)C(=O)C21CCOCC1` [Example 8, N-(2-(2-(2,6-difluoro-3,5-dimethoxyphenyl)-3-oxo-2,2′,3,3′,5′,6′-hexahydro-1H-spiro[[2,7]naphthyridine-4,4′-pyran]-6-ylamino)phenyl)acrylamide], the results for the FGFR3/FGFR4 in assay [1] (setting [5]) and in assay [1] (pre-incubated for 4 hours) were over 10 and over 100, respectively. For the same compound, the IC50 in assay [1] (setting [6]) is over 0.2 µM; in assay [1] (setting [14]), over 0.2 µM; in assay [2] (setting [15]), over 200 nM; in assay [2] (setting [16]), over 200 nM; in assay [3] (setting [12]), over 200 nM; in assay [3] (setting [13]), under 10 nM. Further, the IC50 in assay [4] (setting [11]) and in assay [4] (setting [17]) was over 0.2 µM each time. The FGFR1/FGFR4 in assay [2] (setting [5]) was over 10; in assay [2] (pre-incubated for 4 hours) it was over 100. Further, the figures for the FGFR2/FGFR4 in assay [4] (setting [5]) and in assay [4] (pre-incubated for 4 hours) were over 10 and over 100, respectively.
Regarding `C=CC(=O)Nc1ccccc1Nc1cc2c(cn1)CN(c1c(F)c(OC)cc(OC)c1F)C(=O)C21CCOC1` (centres unmarked) [Example 9, N-(2-(2′-(2,6-difluoro-3,5-dimethoxyphenyl)-3′-oxo-2′,3′,4,5-tetrahydro-1′H,2H-spiro[furan-3,4′-[2,7]naphthyridine]-6′-ylamino)phenyl)acrylamide], the FGFR3/FGFR4 in assay [1] (setting [5]) is listed as over 10; in assay [1] (pre-incubated for 4 hours) it was over 100. The IC50 is over 0.2 µM in assay [1] (setting [6]); over 0.2 µM in assay [1] (setting [14]); over 200 nM in assay [2] (setting [15]); over 200 nM in assay [2] (setting [16]); 10 to 30 nM in assay [3] (setting [9]); under 10 nM in assay [3] (setting [13]). Moreover, the IC50 in assay [4] (setting [11]) and in assay [4] (setting [17]) was over 0.2 µM throughout. Further, the values for the FGFR1/FGFR4 in assay [2] (setting [5]) and in assay [2] (pre-incubated for 4 hours) were over 10 and over 100, respectively. Further, the FGFR2/FGFR4 in assay [4] (setting [5]) was over 10; in assay [4] (pre-incubated for 4 hours) it was over 100.
Take `C=CC(=O)Nc1ccc(N2CCOCC2)cc1Nc1cc2c(cn1)CN(c1c(F)c(OC)cc(OC)c1F)C(=O)C21CC1` [Example 10, N-(2-{[2′-(2,6-difluoro-3,5-dimethoxyphenyl)-3′-oxo-2′,3′-dihydro-1′H-spiro [cyclopropane-1,4′-[2,7]naphthyridin]-6′-yl]amino}-4-morpholin-4-ylphenyl)acrylamide]: the IC50 was 0.03 to 0.2 µM in assay [1]; 0.03 to 0.2 µM in assay [1] (setting [6]); 30 to 200 nM in assay [2] (setting [8]); over 200 nM in assay [2] (setting [15]); under 10 nM in assay [3] (setting [12]); under 10 nM in assay [3] (setting [13]). For the same compound, the IC50 in assay [4] (setting [11]) and in assay [4] (setting [17]) was over 0.2 µM each time. Also, the values for the FGFR3/FGFR4 in assay [1] (setting [5]) and in assay [1] (pre-incubated for 4 hours) were over 10 and over 100, respectively. For the same compound, the FGFR1/FGFR4 in assay [2] (setting [5]) is on record as over 10; in assay [2] (pre-incubated for 4 hours), over 100. Further, the FGFR2/FGFR4 in assay [4] (setting [5]) is reported as over 10; in assay [4] (pre-incubated for 4 hours) it was over 100.

The term IC50 denotes the concentration needed to halve the response being measured.
